For this assay, the target named is RAC-alpha serine/threonine-protein kinase (Homo sapiens) (UniProt P31749). Briefly: off-target activity on human AKT1 kinase – biochemical, 57K library, IC50, selectivity assay for PKD inhibitor project, dose response (AID 1378).

Active and inactive are the calls of the source. The rule behind the calls is not given here.

RAC-alpha serine/threonine-protein kinase (Homo sapiens), sequence (P31749 whole entry, looked up): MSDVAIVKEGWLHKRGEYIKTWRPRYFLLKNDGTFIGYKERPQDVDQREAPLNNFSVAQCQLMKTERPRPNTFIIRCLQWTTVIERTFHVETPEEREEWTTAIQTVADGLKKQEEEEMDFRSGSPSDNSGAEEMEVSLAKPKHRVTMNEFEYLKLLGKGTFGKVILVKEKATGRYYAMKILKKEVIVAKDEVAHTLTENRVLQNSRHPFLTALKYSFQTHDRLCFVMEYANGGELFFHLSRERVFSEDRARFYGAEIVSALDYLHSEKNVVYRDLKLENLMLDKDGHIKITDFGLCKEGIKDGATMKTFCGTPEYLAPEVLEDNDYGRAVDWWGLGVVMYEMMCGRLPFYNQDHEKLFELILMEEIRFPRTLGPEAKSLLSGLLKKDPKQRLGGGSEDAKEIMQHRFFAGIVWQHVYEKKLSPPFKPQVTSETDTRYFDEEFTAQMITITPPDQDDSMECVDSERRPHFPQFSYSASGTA

With `C/C(=N\Nc1ncc(Cl)cc1Cl)c1ccccn1`, the IC50 is > 100 µM (inactive).

The IC50 is the point on the concentration scale where inhibition reaches its midpoint.

The record behind these values is PubChem BioAssay AID1378 (University of Pittsburgh Molecular Library Screening Center, 2008).
